Test results published in patent US20020137929A1, “1 - (3-heterocyclylphenyl) isothiourea, -isourea, -guanidine and -amidine herbicidal agents” (Intellectual Property Department, BASF Aktiengesellschaft, priority 1998, published 2002).

How the values were obtained:
CASOB (Sicklepod) = assay: Postemergence herbicidal evaluation; format: in vivo, Cassia obtusifolia; conditions: postemergence
In short: (§1)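 Visual 0–9 rating versus control (stand, vigor, malformation, size, chlorosis, overall appearance), taken four to five weeks post-spray. Two-week-old seedlings received roughly 0.0156–0.500 kg/ha active in acetone/water (50/50) with 0.5% TWEEN 20 via nozzle at 40 psi.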

[1] = system: CHEAL (Lambsquarters, Common); assay: Postemergence herbicidal evaluation; format: in vivo, Chenopodium album; conditions: postemergence
In short: as §1

ECHCG (Barnyardgrass) = assay: Postemergence herbicidal evaluation; format: in vivo, Echinochloa crus-galli; conditions: postemergence
In short: as §1

ORYSAT (Rice, Tebonnet) [2] = assay: Postemergence herbicidal evaluation; format: in vivo, Oryza sativa, (L.) Tebonnet; conditions: postemergence
In short: as §1

GALAP (Galium) = assay: Preemergence herbicidal evaluation; format: in vivo, Galium aparine; conditions: rated 4-5 weeks after treatment
In short: (§2)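 Seeds were planted in potting soil in cups, then sprayed preemergence with the test compound in aqueous acetone at about 0.0156 to 0.500 kg per hectare. Cups were kept under greenhouse conditions and visually rated 4–5 weeks after treatment on a 0–9 scale against an untreated control.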

SETVI (Foxtail, Green) = assay: Preemergence herbicidal evaluation; format: in vivo, Setaria viridis; conditions: rated 4-5 weeks after treatment
In short: as §2

[3] = system: GLXMAW (Soybean, Williams); assay: Preemergence herbicidal evaluation; format: in vivo, Glycine max, (L.) Merr. cv Williams; conditions: rated 4-5 weeks after treatment
In short: as §2

ORYSAT (Rice, Tebonnet) [4] = assay: Preemergence herbicidal evaluation; format: in vivo, Oryza sativa, (L.) Tebonnet; conditions: rated 4-5 weeks after treatment
In short: as §2

[5] = system: TRZAWR (Wheat, Winter, cv Riband); assay: Preemergence herbicidal evaluation; format: in vivo, Triticum aestivum; conditions: rated 4-5 weeks after treatment
In short: as §2

ZEAMX (Corn, Field) = assay: Preemergence herbicidal evaluation; format: in vivo, Zea mays; conditions: rated 4-5 weeks after treatment
In short: as §2

CYPIR (Rice Flatsedge) = assay: Preemergence weed control under flooded paddy conditions; format: in vivo, Cyperus iria; conditions: rated 3-4 weeks after treatment
In short: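 Seeds or propagules sown in top 0.5 cm of silt loam soil, flooded 1.5 to 3 cm above surface throughout. Compound in 50/50 v/v aqueous/acetone pipetted into flood water at about 0.0313 to 0.500 kg/ha. Visual 0-9 rating versus control after three to four weeks in greenhouse.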

MOOVA (Monochoria) = assay: as above; format: in vivo, Monochoria vaginalis; conditions: rated 3-4 weeks after treatment
In short: (§3)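 Visual injury scored 0-9 against control three to four weeks post-treatment, greenhouse-grown. Application: acetone/water (50/50) solutions dosed directly into flood water (1.5-3 cm over silt loam, planted top 0.5 cm), roughly 0.0313 to 0.500 kg/ha active ingredient.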

[6] = system: SAGPY (Arrowhead (Pygmaea)); assay: as above; format: in vivo, Sagittaria pygmaea; conditions: rated 3-4 weeks after treatment
In short: as §3

[7] = rate 0.1250 kg/ha, rating scale 0-9
[8] = rate 0.2500 kg/ha, rating scale 0-9

COC(=O)CSCCN1C(=O)CSC1=Nc1cc(-n2c(=O)cc(C(F)(F)F)n(C)c2=O)c(F)cc1Cl [Compound 158, Methyl {{2-{2-{{2-chloro-5-[3,6-dihydro-3-methyl-2,6-dioxo-4-(trifluoromethyl)-1(2H)-pyrimidinyl]-4-fluorophenyl}imino}-4-oxo-3-thiazolidinyl}ethyl}-thio}acetate]
herbicidal rating CASOB (CASOB (Sicklepod); rate 0.0156 kg/ha): 4.0
herbicidal rating CASOB (CASOB (Sicklepod); rate 0.0313 kg/ha): 4.0
herbicidal rating CASOB (CASOB (Sicklepod); rate 0.0625 kg/ha): 9.0
herbicidal rating CHEAL ([1]; rate 0.0156 kg/ha): 6.0
herbicidal rating CHEAL ([1]; rate 0.0313 kg/ha): 7.0
herbicidal rating CHEAL ([1]; rate 0.0625 kg/ha): 9.0
herbicidal rating ECHCG (ECHCG (Barnyardgrass); rate 0.0156 kg/ha): 2.0
herbicidal rating ECHCG (ECHCG (Barnyardgrass); rate 0.0313 kg/ha): 2.0
herbicidal rating ECHCG (ECHCG (Barnyardgrass); rate 0.0625 kg/ha): 3.0
herbicidal rating ORYSAT (ORYSAT (Rice, Tebonnet) [2]; rate 0.0156 kg/ha): 2.0
herbicidal rating ORYSAT (ORYSAT (Rice, Tebonnet) [2]; rate 0.0313 kg/ha): 2.5
herbicidal rating ORYSAT (ORYSAT (Rice, Tebonnet) [2]; rate 0.0625 kg/ha): 3.5
Preemergence herbicidal rating GALAP (GALAP (Galium); 0.0156 kg/ha): 0.0
Preemergence herbicidal rating GALAP (GALAP (Galium); 0.0313 kg/ha): 0.0
Preemergence herbicidal rating GALAP (GALAP (Galium); 0.0625 kg/ha): 5.0
Preemergence herbicidal rating GALAP (GALAP (Galium); [7]): 7.0
Preemergence herbicidal rating GALAP (GALAP (Galium); [8]): 6.0
Preemergence herbicidal rating SETVI (SETVI (Foxtail, Green); 0.0156 kg/ha): 7.0
Preemergence herbicidal rating SETVI (SETVI (Foxtail, Green); 0.0313 kg/ha): 9.0
Preemergence herbicidal rating SETVI (SETVI (Foxtail, Green); 0.0625 kg/ha): 9.0
Preemergence herbicidal rating SETVI (SETVI (Foxtail, Green); [7]): 9.0
Preemergence herbicidal rating SETVI (SETVI (Foxtail, Green); [8]): 9.0
Preemergence herbicidal rating GLXMAW ([3]; 0.0156 kg/ha): 1.0
Preemergence herbicidal rating GLXMAW ([3]; 0.0313 kg/ha): 4.0
Preemergence herbicidal rating GLXMAW ([3]; 0.0625 kg/ha): 6.0
Preemergence herbicidal rating GLXMAW [3, 7]: 7.0
Preemergence herbicidal rating GLXMAW [3, 8]: 9.0
Preemergence herbicidal rating ORYSAT (ORYSAT (Rice, Tebonnet) [4]; 0.0156 kg/ha): 3.0
Preemergence herbicidal rating ORYSAT (ORYSAT (Rice, Tebonnet) [4]; 0.0313 kg/ha): 4.0
Preemergence herbicidal rating ORYSAT (ORYSAT (Rice, Tebonnet) [4]; 0.0625 kg/ha): 7.0
Preemergence herbicidal rating ORYSAT (ORYSAT (Rice, Tebonnet) [4]; [7]): 7.0
Preemergence herbicidal rating ORYSAT (ORYSAT (Rice, Tebonnet) [4]; [8]): 8.0
Preemergence herbicidal rating TRZAWR ([5]; 0.0156 kg/ha): 1.0
Preemergence herbicidal rating TRZAWR ([5]; 0.0313 kg/ha): 4.0
Preemergence herbicidal rating TRZAWR ([5]; 0.0625 kg/ha): 5.0
Preemergence herbicidal rating TRZAWR [5, 7]: 7.0
Preemergence herbicidal rating TRZAWR [5, 8]: 7.0
Preemergence herbicidal rating ZEAMX (ZEAMX (Corn, Field); 0.0156 kg/ha): 5.0
Preemergence herbicidal rating ZEAMX (ZEAMX (Corn, Field); 0.0313 kg/ha): 7.0
Preemergence herbicidal rating ZEAMX (ZEAMX (Corn, Field); 0.0625 kg/ha): 8.0
Preemergence herbicidal rating ZEAMX (ZEAMX (Corn, Field); [7]): 9.0
Preemergence herbicidal rating ZEAMX (ZEAMX (Corn, Field); [8]): 9.0
herbicidal effect rating, CYPIR (CYPIR (Rice Flatsedge); 0.0313 kg/ha): 9.0
herbicidal effect rating, CYPIR (CYPIR (Rice Flatsedge); 0.0625 kg/ha): 9.0
herbicidal effect rating, CYPIR (CYPIR (Rice Flatsedge); 0.1250 kg/ha): 9.0
herbicidal effect rating, CYPIR (CYPIR (Rice Flatsedge); 0.2500 kg/ha): 9.0
herbicidal effect rating, MOOVA (MOOVA (Monochoria); 0.0313 kg/ha): 9.0
herbicidal effect rating, MOOVA (MOOVA (Monochoria); 0.0625 kg/ha): 9.0
herbicidal effect rating, MOOVA (MOOVA (Monochoria); 0.1250 kg/ha): 9.0
herbicidal effect rating, MOOVA (MOOVA (Monochoria); 0.2500 kg/ha): 9.0
herbicidal effect rating, SAGPY ([6]; 0.0313 kg/ha): 4.0
herbicidal effect rating, SAGPY ([6]; 0.0625 kg/ha): 5.0
herbicidal effect rating, SAGPY ([6]; 0.1250 kg/ha): 6.0
herbicidal effect rating, SAGPY ([6]; 0.2500 kg/ha): 9.0

CCCCOC(=O)CN1C(=O)CSC1=Nc1cc(-n2c(=O)cc(C(F)(F)F)n(C)c2=O)c(F)cc1Cl [Compound 111]
herbicidal rating CASOB (CASOB (Sicklepod); rate 0.0158 kg/ha): 0.0
herbicidal rating CASOB (CASOB (Sicklepod); rate 0.0315 kg/ha): 1.0
herbicidal rating CASOB (CASOB (Sicklepod); rate 0.0630 kg/ha): 1.0
herbicidal rating CHEAL ([1]; rate 0.0158 kg/ha): 2.0
herbicidal rating CHEAL ([1]; rate 0.0315 kg/ha): 6.0
herbicidal rating CHEAL ([1]; rate 0.0630 kg/ha): 7.0
herbicidal rating ECHCG (ECHCG (Barnyardgrass); rate 0.0158 kg/ha): 3.0
herbicidal rating ECHCG (ECHCG (Barnyardgrass); rate 0.0315 kg/ha): 4.0
herbicidal rating ECHCG (ECHCG (Barnyardgrass); rate 0.0630 kg/ha): 9.0
herbicidal rating ORYSAT (ORYSAT (Rice, Tebonnet) [2]; rate 0.0158 kg/ha): 2.5
herbicidal rating ORYSAT (ORYSAT (Rice, Tebonnet) [2]; rate 0.0315 kg/ha): 4.5
herbicidal rating ORYSAT (ORYSAT (Rice, Tebonnet) [2]; rate 0.0630 kg/ha): 4.5
Preemergence herbicidal rating GALAP (GALAP (Galium); rate 0.0156 kg/ha): 0.0
Preemergence herbicidal rating GALAP (GALAP (Galium); rate 0.0313 kg/ha): 0.0
Preemergence herbicidal rating GALAP (GALAP (Galium); rate 0.0625 kg/ha): 0.0
Preemergence herbicidal rating GALAP (GALAP (Galium); rate 0.1250 kg/ha): 6.0
Preemergence herbicidal rating GALAP (GALAP (Galium); rate 0.2500 kg/ha): 7.0
Preemergence herbicidal rating SETVI (SETVI (Foxtail, Green); rate 0.0156 kg/ha): 0.0
Preemergence herbicidal rating SETVI (SETVI (Foxtail, Green); rate 0.0313 kg/ha): 0.0
Preemergence herbicidal rating SETVI (SETVI (Foxtail, Green); rate 0.0625 kg/ha): 1.0
Preemergence herbicidal rating SETVI (SETVI (Foxtail, Green); rate 0.1250 kg/ha): 7.0
Preemergence herbicidal rating SETVI (SETVI (Foxtail, Green); rate 0.2500 kg/ha): 7.0
Preemergence herbicidal rating GLXMAW ([3]; rate 0.0156 kg/ha): 1.0
Preemergence herbicidal rating GLXMAW ([3]; rate 0.0313 kg/ha): 1.0
Preemergence herbicidal rating GLXMAW ([3]; rate 0.0625 kg/ha): 1.0
Preemergence herbicidal rating GLXMAW ([3]; rate 0.1250 kg/ha): 3.0
Preemergence herbicidal rating GLXMAW ([3]; rate 0.2500 kg/ha): 4.0
Preemergence herbicidal rating ORYSAT (ORYSAT (Rice, Tebonnet) [4]; rate 0.0156 kg/ha): 0.0
Preemergence herbicidal rating ORYSAT (ORYSAT (Rice, Tebonnet) [4]; rate 0.0313 kg/ha): 0.0
Preemergence herbicidal rating ORYSAT (ORYSAT (Rice, Tebonnet) [4]; rate 0.0625 kg/ha): 0.0
Preemergence herbicidal rating ORYSAT (ORYSAT (Rice, Tebonnet) [4]; rate 0.1250 kg/ha): 1.0
Preemergence herbicidal rating ORYSAT (ORYSAT (Rice, Tebonnet) [4]; rate 0.2500 kg/ha): 5.0
Preemergence herbicidal rating TRZAWR ([5]; rate 0.0156 kg/ha): 0.0
Preemergence herbicidal rating TRZAWR ([5]; rate 0.0313 kg/ha): 0.0
Preemergence herbicidal rating TRZAWR ([5]; rate 0.0625 kg/ha): 0.0
Preemergence herbicidal rating TRZAWR ([5]; rate 0.1250 kg/ha): 1.0
Preemergence herbicidal rating TRZAWR ([5]; rate 0.2500 kg/ha): 4.0
Preemergence herbicidal rating ZEAMX (ZEAMX (Corn, Field); rate 0.0156 kg/ha): 0.0
Preemergence herbicidal rating ZEAMX (ZEAMX (Corn, Field); rate 0.0313 kg/ha): 0.0
Preemergence herbicidal rating ZEAMX (ZEAMX (Corn, Field); rate 0.0625 kg/ha): 0.0
Preemergence herbicidal rating ZEAMX (ZEAMX (Corn, Field); rate 0.1250 kg/ha): 4.0
Preemergence herbicidal rating ZEAMX (ZEAMX (Corn, Field); rate 0.2500 kg/ha): 4.0
CYPIR herbicidal effect rating (CYPIR (Rice Flatsedge); 0.0313 kg/ha): 0.0
CYPIR herbicidal effect rating (CYPIR (Rice Flatsedge); 0.0625 kg/ha): 3.0
CYPIR herbicidal effect rating (CYPIR (Rice Flatsedge); 0.1250 kg/ha): 4.0
CYPIR herbicidal effect rating (CYPIR (Rice Flatsedge); 0.2500 kg/ha): 5.0
MOOVA herbicidal effect rating (MOOVA (Monochoria); 0.0313 kg/ha): 3.0
MOOVA herbicidal effect rating (MOOVA (Monochoria); 0.0625 kg/ha): 4.0
MOOVA herbicidal effect rating (MOOVA (Monochoria); 0.1250 kg/ha): 4.0
MOOVA herbicidal effect rating (MOOVA (Monochoria); 0.2500 kg/ha): 4.0
SAGPY herbicidal effect rating ([6]; 0.0313 kg/ha): 3.0
SAGPY herbicidal effect rating ([6]; 0.0625 kg/ha): 4.0
SAGPY herbicidal effect rating ([6]; 0.1250 kg/ha): 5.0
SAGPY herbicidal effect rating ([6]; 0.2500 kg/ha): 6.0
